Experimental data from patent US10590118B2, “Bicyclic heterocyclic derivatives as bromodomain inhibitors” (Orion Corporation, priority 2014, dated 2020).

target: T1, Bet bromodomain protein (BRD4) (Homo sapiens, UniProt O60885); assay: Bet bromodomain TR-FRET assay; format: binding; details: 300 nM acetyl histone peptide substrate, results given as Group A/B/C
T1 construct: made in house
Experimental: In-Vitro Biochemical Data of bicyclic heterocyclic derivatives in time-resolved fluorescence resonance energy transfer (TR-FRET) assay.
The Bet brommodomain TR-FRET assay has been used to identify compounds that bind to bet bromodomain and prevent its interaction with acetylated histone peptides.
In the assay, optimized concentration of in-house Bet bromodomain protein (BRD4) and 300 nM of acetyl histone peptide substrate were diluted in assay buffer (50 mM HEPES, pH: 7.5, 50 mM NaCl, 500 μM CHAPS) and were added to the positive control and test control wells in a 384 well plate. Substrate control wells have 300 nM of acetyl histone peptide substrate diluted in assay buffer. Buffer blank wells were added with assay buffer. The reaction mixture was allowed for incubation at room temperature for 30 mins. Stock solutions of test compounds at 20 mM DMSO are prepared. Compounds are serially diluted and added to the test wells in 384-well polypropylene plates. The reaction mixture was further incubated for 30 mins at room temperature on a plate shaker. 2 nM of Europium labeled streptavidn and 10 nM of XL-665 labeled antibody diluted in detection buffer (50 mM HEPES, pH: 7.5, 50 mM NaCl, 500 μM CHAPS and 800 mM KF) were added to all the wells excluding the buffer blank wells. The reaction plate was incubated for additional 30 mins at room temperature on plate shaker. The plate was read in Perkin Elmer WALLAC 1420 Multilabel Counter Victor 3 (Ex: 340 nm Em: 615 and 665 nm). The amount of displacement of the peptide was measured as ratio of specific 665 nm energy transfer signal to 615 nm signals. The compounds IC50 was determined by fitting the dose response data to sigmoid curve fitting equation using Graph Pad Prism software V5.

IC50 [nM]	SMILES
≤ 1000	COc1cc2c(cc1-c1c(C)noc1C)OCCN2Cc1ccc(Cl)cc1 [Compound 1, 4-(4-chlorobenzyl)-7-(3,5-dimethylisoxazol-4-yl)-6-methoxy-3,4-dihydro-2H-benzo[b][1,4]oxazine]
> 3000	COc1cc2c(cc1-c1c(C)noc1C)OCC(=O)N2CC1CCNCC1 [Compound 60, 7-(3,5-dimethylisoxazol-4-yl)-6-methoxy-4-(piperidin-4-ylmethyl)-2H-benzo[b][1,4]oxazin-3(4H)-one]
≤ 1000	COc1cc2c(ccc(=O)n2C(C)c2ccccn2)cc1-c1c(C)noc1C (centres unmarked) [Compound 40, 6-(3,5-dimethytisoxazol-4-yl)-7-methoxy-1-(1-(pyridin-2-yl)ethyl)quinolin-2(1H)-one]
≤ 1000	COc1cc2c(ccc(=O)n2Cc2ccccn2)cc1-c1conc1C [Compound 64, 7-methoxy-6-(3-methylisoxazol-4-yl)-1-(pyridin-2-ylmethyl)quinolin-2(1H)-one]
≤ 1000	Cc1noc(C)c1-c1cc2ccc(=O)n(Cc3ccccn3)c2cc1OCCO [Compound 80, 6-(3,5-dimethylisoxazol-4-yl)-7-(2-hydroxyethoxy)-1-(pyridin-2-ylmethyl)quinolin-2(1H)-one]
≤ 1000	COc1cc2c(cc1-c1c(C)noc1C)c(C1CC1)cc(=O)n2Cc1ccccn1 [Compound 55, 4-cyclopropyl-6-(3,5-dimethytisoxazol-4-yl)-7-methoxy-1-(pyridin-2-ylmethyl)quinolin-2(1H)-one]
≤ 1000	COc1cc2c(ccc(=O)n2CCN2CCOCC2)cc1-c1c(C)noc1C [Compound 38, 6-(3,5-dimethylisoxazol-4-yl)-7-methoxy-1-(2-morpholinoethyl)quinolin-2(1H)-one]
≤ 1000	COc1cc2c(ccc(=O)n2Cc2ccccn2)cc1-c1c(C)n[nH]c1C [Compound 66, 6-(3,5-dimethyl-1H-pyrazol-4-yl)-7-methoxy-1-(pyridin-2-ylmethyl)quinolin-2(1H)-one]
1000 to 3000	COc1cc2c(cc1-c1c(C)noc1C)OCC(=O)N2CCc1ccccn1 [Compound 35, 7-(3,5-dimethylisoxazol-4-yl)-6-methoxy-4-(2-(pyridin-2-yl)ethyl)-2H-benzo[b][1,4]oxazin-3(4H)-one]
1000 to 3000	Cc1noc(C)c1-c1cc2ccc(=O)n(Cc3ccccn3)c2cc1OCCN1CCNCC1 [Compound 82, 6-(3,5-dimethylisoxazol-4-yl)-7-(2-(piperazin-1-yl)ethoxy)-1-(pyridin-2-ylmethyl)quinolin-2(1H)-one]
1000 to 3000	COc1cc2c(cc1-c1c(C)noc1C)OCCN2S(=O)(=O)c1cccnc1 [Compound 12, 7-(3,5-dimethylisoxazol-4-yl)-6-methoxy-4-(pyridin-3-ylsulfonyl)-3,4-dihydro-2H-benzo[b][1,4]oxazine]
≤ 1000	Cc1noc(C)c1-c1cc2ccc(=O)n(Cc3ccccn3)c2cc1OCCCO [Compound 84, 6-(3,5-dimethylisoxazol-4-yl)-7-(3-hydroxypropoxy)-1-(pyridin-2-ylmethyl)quinolin-2(1H)-one]
≤ 1000	COc1cc2c(cc1-c1c(C)noc1C)cc(C1CCCCC1)c(=O)n2Cc1cccnc1 [Compound 69, 3-cyclohexyl-6-(3,5-dimethylisoxazol-4-yl)-7-methoxy-1-(pyridin-3-ylmethyl)quinolin-2(1H)-one]
> 3000	COc1cc2c(ccc(=O)n2Cc2ccccn2)cc1-c1cnoc1C [Compound 63, 7-methoxy-6-(5-methylisoxazol-4-yl)-1-(pyridin-2-ylmethyl)quinolin-2(1H)-one]
≤ 1000	COc1cc2c(cc1-c1c(C)noc1C)OCC(=O)N2Cc1ccccn1 [Compound 22, 7-(3,5-dimethytisoxazol-4-yl)-6-methoxy-4-(pyridin-2-ylmethyl)-2H-benzo[b][1,4]oxazin-3(4H)-one]
≤ 1000	COc1cc2c(cc1-c1c(C)n[nH]c1C)OCC(=O)N2Cc1ccc(Cl)cc1 [Compound 65, 4-(4-chlorobenzyl)-7-(3,5-dimethyl-1H-pyrazol-4-yl)-6-methoxy-2H-benzo[b][1,4]oxazin-3(4H)-one]
≤ 1000	COc1cc2c(cc1-c1c(C)noc1C)cc(C)c(=O)n2Cc1ccc(Cl)cn1 [Compound 58, 1-((5-chloropyridin-2-yl)methyl)-6-(3,5-dimethylisoxazol-4-yl)-7-methoxy-3-methylquinolin-2(1H)-one]
≤ 1000	COc1cc2c(ccc(=O)n2Cc2ccc(Cl)cn2)cc1-c1c(C)noc1C [Compound 37, 1-((5-chloropyridin-2-yl)methyl)-6-(3,5-dimethylisoxazol-4-yl)-7-methoxyquinolin-2(1H)-one]

IC50 [nM]	SMILES
> 3000	COCCOc1cc2c(cc1-c1c(C)noc1C)OCC(=O)N2Cc1ccncc1 [Compound 71, 7-(3,5-dimethylisoxazol-4-yl)-6-(2-methoxyethoxy)-4-(pyridin-4-ylmethyl)-2H-benzo[b][1,4]oxazin-3(4H)-one]
≤ 1000	COc1cc2c(ccc(=O)n2Cc2cnccn2)cc1-c1c(C)noc1C [Compound 8, 6-(3,5-dimethylisoxazol-4-yl)-7-methoxy-1-(pyrazin-3-ylmethyl)quinolin-2(1H)-one]
≤ 1000	COc1cc2c(cc1-c1c(C)noc1C)cc(C(O)(O)C(F)(F)F)c(=O)n2Cc1ccccn1 [Compound 104, 6-(3,5-dimethylisoxazol-4-yl)-7-methoxy-1-(pyridin-2-ylmethyl)-3-(2,2,2-trifluoro-1,1-dihydroxyethyl)quinolin-2(1H)-one]
≤ 1000	COc1cc2c(ccc(=O)n2Cc2ccc(C(F)(F)F)cn2)cc1-c1c(C)noc1C [Compound 47, 6-(3,5-dimethylisoxazol-4-yl)-7-methoxy-1-((5-(trifluoromethyl)pyridin-2-yl)methyl)quinolin-2(1H)-one]
≤ 1000	COc1cc2c(cc1-c1c(C)noc1C)CCC(=O)N2Cc1ccccn1 [Compound 10, 6-(3,5-dimethylisoxazol-4-yl)-7-methoxy-1-(pyridin-2-ylmethyl)-3,4-dihydroquinolin-2(1H)-one]
1000 to 3000	Cc1noc(C)c1-c1cc2ccc(=O)n(Cc3ccccn3)c2cc1OCCC1CCNCC1 [Compound 88, 6-(3,5-dimethylisoxazol-4-yl)-7-(2-(piperidin-4-yl)ethoxy)-1-(pyridin-2-ylmethyl)quinolin-2(1H)-one]
≤ 1000	COc1cc2c(cc1-c1c(C)noc1C)ncc(=O)n2Cc1ccccn1 [Compound 93, 6-(3,5-dimethylisoxazol-4-yl)-7-methoxy-1-(pyridin-2-ylmethyl)quinoxalin-2(1H)-one]
≤ 1000	COc1cc2c(cc1-c1c(C)noc1C)cc(C)c(=O)n2CCc1ccc(Cl)cc1 [Compound 59, 1-(4-chlorophenethyl)-6-(3,5-dimethylisoxazol-4-yl)-7-methoxy-3-methylquinolin-2(1H)-one]
≤ 1000	Cc1noc(C)c1-c1cc2ccc(=O)n(Cc3ccccn3)c2cc1OCc1ccncc1 [Compound 83, 6-(3,5-dimethylisoxazol-4-yl)-1-(pyridin-2-ylmethyl)-7-(pyridin-4-ylmethoxy)quinolin-2(1H)-one]
> 3000	COc1cc2c(ccc(=O)n2Cc2ccccn2)cc1C1=C(C)C(=O)NC1=O [Compound 92, 3-(7-methoxy-2-oxo-1-(pyridin-2-ylmethyl)-1,2-dihydroquinolin-6-yl)-4-methyl-1H-pyrrole-2,5-dione]
1000 to 3000	COc1cc2c(cc1-c1c(C)noc1C)OCCN2S(=O)(=O)c1cccc(Cl)c1 [Compound 11, 4-((3-chlorophenyl)sulfonyl)-7-(3,5-dimethylisoxazol-4-yl)-6-methoxy-3,4-dihydro-2H-benzo[b][1,4]oxazine]
≤ 1000	C=CCOc1cc2c(ccc(=O)n2Cc2ccccn2)cc1-c1c(C)noc1C [Compound 79, 7-(allyloxy)-6-(3,5-dimethylisoxazol-4-yl)-1-(pyridin-2-ylmethyl)quinolin-2(1H)-one]
≤ 1000	COc1cc2c(cc1-c1c(C)noc1C)ncc(=O)n2Cc1ccc(Cl)cc1 [Compound 4, 1-(4-chlorobenzyl)-6-(3,5-dimethylisoxazol-4-yl)-7-methoxyquinoxalin-2(1H)-one]
> 3000	Cc1noc(C)c1-c1cc2ccc(=O)n(Cc3ccccn3)c2cc1OC1CCNCC1 [Compound 86, 6-(3,5-dimethylisoxazol-4-yl)-7-(piperidin-4-yloxy)-1-(pyridin-2-ylmethyl)quinolin-2(1H)-one]
≤ 1000	COc1cc2c(ccc(=O)n2Cc2ccc(Cl)nc2)cc1-c1c(C)noc1C [Compound 67, 1-((6-chloropyridin-3-yl)methyl)-6-(3,5-dimethylisoxazol-4-yl)-7-methoxyquinolin-2(1H)-one]
> 3000	COc1cc2c(cc1Nc1c(C)noc1C)OCC(=O)N2Cc1ccc(Cl)cc1 [Compound 95, 4-(4-chlorobenzyl)-7-((3,5-dimethylisoxazol-4-yl)amino)-6-methoxy-2H-benzo[b][1,4]oxazin-3(4H)-one]
≤ 1000	COc1cc2c(cc1-c1c(C)noc1C)CCC(=O)N2Cc1ccc(Cl)cc1 [Compound 5, 1-(4-chlorobenzyl)-6-(3,5-dimethyisoxazol-4-yl)-7-methoxy-3,4-dihydroquinolin-2(1H)-one]
